Laboratory results published in patent US8846001B2 (GE Healthcare Limited, priority 2009, dated 2014).

Columns and labels:
avidin = target: T1, avidin (Gallus gallus, UniProt P02701); test: Avidin binding saturation in solution, percentage binding determined by HPLC; details: 2-128 nmol ligand, 2 nmol avidin, 5 min, room temperature
T1 construct: avidin (lyophilised powder, from egg white); purchased Sigma-Aldrich; host or cells: egg white
Description: The percentage binding was determined by HPLC analysis.
The incubation was carried out during 5 min at room temperature with varied ligand concentration resulting in ligand/avidin ratio of 0.25, 1, 4 and 16. Data are presented as mean±SD (n=2). […] The specific binding presented as the avidin consumption in percentage was plotted against the ratio of total molar concentration of added ligands and avidin. The result was analyzed by nonlinear regression using the GraphPad Prism Software.

porcine islets = porcine islets in vitro; cited from earlier work

T1 sequence (P02701 25-152): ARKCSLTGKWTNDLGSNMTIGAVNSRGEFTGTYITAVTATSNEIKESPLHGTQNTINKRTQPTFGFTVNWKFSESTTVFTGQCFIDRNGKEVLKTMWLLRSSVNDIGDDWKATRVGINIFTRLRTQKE

SMILES | binding to avidin in solution (in words) (avidin) | half-life of retention (porcine islets) [h]
O=C(O)CCCC[C@@H]1SC[C@@H]2NC(=O)N[C@@H]21 [Biotin, 5-[(3aS,4S,6aR)-2-oxohexahydro-1H-thieno[3,4-d]imidazol-4-yl]pentanoic acid] | highest binding | 
OC[C@H]1OC(O)[C@H]([18F])[C@@H](O)[C@@H]1O (some centres unmarked) [[^18F]FDG] |  | 2.358
